Positions of bridges follow the written chain, without caps; N, C: chain ends. Non-standard residues stand in square brackets, D forms with d. No end group written: not given here. pGlu = O=C1CC[C@@H](C(=O)O)N1 Some results are limits rather than exact numbers.

The format of series [1] is physicochemical. As to the method: Purified mO1 (40 μg) was dissolved in water and incubated at 100 °C for 1 h. A linear peptide RV-14 ([…]) synthesized in our laboratory was used as a control. After incubation, the samples were subjected to RP-UPLC to assess the presence and extent of degradation.
Series [2] can be described thus: Proteolytic enzyme stability assay, carboxypeptidase A. In kind it is in vitro ADME. The settings on record: isolated enzyme carboxypeptidase, 50 mM Tris-HCl with 100 mM NaCl pH 7.5, 37 °C, peptide:enzyme 50:1 (w/w), RP-UPLC area under the curve, MALDI-TOF MS, read-out: peptide remained intact after carboxypeptidase A treatment. The protocol: (§1) Purified mO1 was incubated at 37 °C with pepsin or carboxypeptidase A in 100 mM sodium citrate (pH 4.5) or 50 mM Tris–HCl with 100 mM NaCl (pH 7.5) at a final peptide to enzyme ratio (w/w) of 20:1 and 50:1, respectively. At each time point (0, 2, 4, 6 h) 50 μL of the sample was injected into the UPLC system, and the mass of peaks collected were analyzed by MALDI-TOF MS. A linear peptide WV-14 (WRLYRGRLYRRNHV) synthesized in-house was used as a control.

Series [3] can be described thus: Proteolytic enzyme stability assay, pepsin. In kind it is in vitro ADME. To be noted: isolated enzyme pepsin, 100 mM sodium citrate pH 4.5, 37 °C, peptide:enzyme 20:1 (w/w), RP-UPLC area under the curve, MALDI-TOF MS, read-out: peptide remained intact after pepsin treatment. As to the method: as §1
The test system of series [4] is Vero cells. Kind of series: Cytotoxicity assay (PrestoBlue cell viability). To be noted: concentrations up to 100 μM (1–100 μM), 24 h, DMEM 10% FBS, absorbance 570 nm. In kind it is cell-based. As to the method: The cytotoxic effect of morintide, mO1 (1–100 μM) was tested on Vero cells (5 × 10^4 cells/ml) in Dulbecco’s modified Eagle’s medium (DMEM) supplemented with 10% fetal bovine serum (FBS) and 1% penicillin/streptomycin (PS). Vero cells (ATCC CCL-81) were a kind gift from Dr Liu Ding Xiang (School of Biological Sciences, Nanyang Technological University, Singapore). After 24 h of incubation, 10 μl of PrestoBlue® Cell Viability Reagent (Invitrogen, USA) was added to the wells and incubated at 37 °C for 1 h. After incubation, the absorbance was measured at 570 nm using a microplate reader.

For series [5], the system named is Alternaria alternata (CICC 2465). Kind of series: Disc diffusion assay. In kind it is cell-based. To be noted: 17.5 to 70 μg mO1 on 6 mm discs, PDA plates, 24 h at 25 °C. The protocol:
(§2) The susceptibility of seven fungal strains obtained from the China Center of Industrial Culture Collection (CICC), namely, Curvularia lunata (CICC 40301), Fusarium oxysporum (CICC 2532), Aspergillus niger (CICC 2089), Verticillium dahilae (CICC 2534), Rhizoctonia solani (CICC 40259), Alternaria alternata (CICC 2465) and Alternaria brassiciola (CICC 2646) to mO1 (17.5 to 70 μg) was tested using a disc diffusion assay. Potato dextrose agar (PDA) plates were used to grow C. lunata, R. solani, V. dahilae A. alternata, and A. brassiciola (A. niger was grown on malt extract (ME) agar plates) at 25 °C. When sufficient growth was observed, the mycelia were harvested by punching a hole in the growing fungi and transferring it to a new agar plate. The plate was incubated at 25 °C for 48 h to 72 h to allow formation of a radial mycelial colony. 6 mm discs impregnated with 20 μL of mO1 were placed equidistant (1 cm) from the growing ends of the mycelia and incubated for 24 h at 25 °C. Deionized water was used as a negative control. Formation of arc-shaped inhibition zones indicated susceptibility to mO1.
For orientation: In agar diffusion tests the substance spreads into inoculated agar from a disc or well.

The subject of series [6] is Alternaria brassiciola (CICC 2646). Kind of series: Disc diffusion assay. In kind it is cell-based. To be noted: 17.5 to 70 μg mO1 on 6 mm discs, PDA plates, 24 h at 25 °C. The protocol: as §2
Series [7] can be described thus: Chitin binding assay with chitin beads. The protocol:
Purified morintide (mO1) was incubated with chitin beads (New England Biolabs, Massachusetts, […]) in chitin binding buffer (140 mM NaCl, 10 mM Tris EDTA 1 mM; pH 8.0; then, 0.1% (v/v) Tween 20 was added) at 4 °C for 4 h. At each time point, the beads were centrifuged at 12,000 g for 1 min and the absorbance of the supernatant was read at 280 nm to assess binding. Elution of the bound peptide was performed using two methods. In the first method, 0.5 M acetic acid and heating at 100 °C for 30 min and 1 h was used, and in the second method, four elution buffers (10 mM Tris, 1 mM EDTA, 0.1% (v/v) Tween 20; pH 8.0) with increasing concentration of sodium chloride (300 mM, 500 mM, 700 mM, and 1 M) were used. Reduced and alkylated mO1 was used as a control. Supernatants were further analyzed by UPLC and MALDI-TOF to assess binding and elution.

Take “RLYRRGRLYRRNHV [RV-14, linear peptide synthesized in the authors' laboratory, control in the thermal stability assay, reference compound]”: the “peptide degraded on heating” value in series [1] was “More than 50%”.

Consider “[pGlu]NCGRQAGNRACANQLCCSQYGFCGSTSEYCSRANGCQSNCRG (disulfide 3-18, 12-24, 17-31, 37-41) [mO1]”, for which the remaining at 6 h in series [2] and in series [3] was greater than 95% each time. Besides, the “peptide remained intact after heating” value in series [1] (40 μg in water, 100 °C for 1 h, area under the curve of RP-UPLC chromatograms) is “more than 95%”. In series [4], the “cytotoxic effect on Vero cells” value is on record as “No significant cytotoxic effect”. In addition, the “susceptibility (crescent-/arc-shaped inhibition zones)” value in series [5] and in series [6] was “susceptible” throughout. Besides, in series [7] (0.5 M acetic acid, 100 °C, RP-UPLC), the “time for elution from chitin beads with 0.5 M acetic acid with heating at 100 °C” value turned out to be 1 h. Besides, the “elution from chitin beads with elution buffers with up to 1 M NaCl” value in series [7] (elution buffers 10 mM Tris, 1 mM EDTA, 0.1% Tween 20, pH 8.0 with 300 mM, 500 mM, 700 mM, 1 M NaCl) is “could not be eluted”. Besides, the “time for elution from chitin beads in acidic conditions at high temperature” value in series [7] (legend of Figure S2, acidic conditions at high temperature) is listed as 30 min.

The values above are taken from publication PMC5374622, “Morintides: cargo-free chitin-binding peptides from Moringa oleifera” (BMC Plant Biology, 2017).
